Results on 8 compounds are retold here after PMC6274503, “Chemical Constituents of Muehlenbeckia tamnifolia (Kunth) Meisn (Polygonaceae) and Its In Vitro α-Amilase and α-Glucosidase Inhibitory Activities” (Molecules, 2016).

Read-outs that look alike come from different tables or passages of the source. Some results are limits rather than exact numbers.

The target in assay [1] is α-glucosidase from Saccharomyces cerevisiae. The assay is described as follows: α-glucosidase inhibition assay (p-NPG substrate, pNP release over 60 min). The format is biochemical. The note with it: for IC50: compounds and acarbose, max concentration tested 1 mM, '-' = no inhibitory activity at maximum dose tested.
Procedure: (§1) The α-amylase and α-glucosidase assays were evaluated using α-amylase from porcine pancreas (Type IV-B, Sigma A3176, St. Louis, MO, USA) and α-glucosidase from Saccharomyces cerevisiae (Tipe I, Sigma G5003, St. Louis, MO, USA). Starch was used as substrate for α-amylase and p-Nitrophenyl-α-D-glucopiranoside (p-NPG-Sigma, N1377) was used as substrate for α-glucosidase. For both enzymatic tests, a microplate reader (EPOCH 2, Biotek Instruments Inc. Winoosky, VT, USA) was used.
α-Glucosidase inhibitory activity was determined using a 96-well microtiter plate with p-nitrophenyl-α-D-glucopyranoside as the substrate, according to the method describe by Tao et al. [32], with slight modifications. Sample solutions were prepared by dissolving 10 mg in 1 mL MeOH:H2O (50:50). Several dilutions in PBS were made in case of getting complete enzyme inhibition. First, 75 μL of PBS (SIGMA-P4417) was mixed with 5 μL of the sample and 20 μL of the enzyme solution (0.15 U/mL in PBS pH 7.4), then it was pre-incubated at 37 °C for 5 min prior to the initiation of the reaction by adding the substrate. After pre-incubation, 20 μL of PNPG (5 mM in phosphate buffer, pH 7.4) was added and then incubated at 37 °C. […] The results were expressed as inhibition percentage by means of the formula described by Choi et al. [33] as follows: (2) Inhibition (%)=[(Ao−As)/Ao]×100 where A0 is the absorbance recorded for the enzymatic activity without inhibitor (control), and As is the absorbance recorded for the enzymatic activity in presence of the inhibitor (sample). IC50 value was calculated by curve fitting of data (GraphPad Prism 5.0).
Assay [2] deals with T1, α-amylase from porcine pancreas (Sus scrofa, UniProt P00690).
T1 sequence (P00690 16-511): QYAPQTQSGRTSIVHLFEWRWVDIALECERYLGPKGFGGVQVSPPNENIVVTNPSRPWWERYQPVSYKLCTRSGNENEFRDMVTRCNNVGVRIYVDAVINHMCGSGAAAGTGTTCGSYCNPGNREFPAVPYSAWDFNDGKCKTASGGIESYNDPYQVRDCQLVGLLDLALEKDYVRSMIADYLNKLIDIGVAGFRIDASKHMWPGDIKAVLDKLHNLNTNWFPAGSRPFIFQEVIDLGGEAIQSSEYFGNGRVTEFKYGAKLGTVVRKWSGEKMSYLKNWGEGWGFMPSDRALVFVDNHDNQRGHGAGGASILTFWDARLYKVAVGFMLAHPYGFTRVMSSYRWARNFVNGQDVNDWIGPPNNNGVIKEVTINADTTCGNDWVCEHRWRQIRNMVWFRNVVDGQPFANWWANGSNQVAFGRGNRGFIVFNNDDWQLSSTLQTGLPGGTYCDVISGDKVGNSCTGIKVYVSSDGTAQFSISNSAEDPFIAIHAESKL
The experiment in a line: α-amylase inhibitory activity (starch-iodine method). The format is biochemical.
Procedure: as §1
The inhibitory activity is measured according to the method reported by Xiao et al. [30] with slight modifications. […] Starch solution was prepared by dissolving 1 g in 50 mL of 0.4 M NaOH and heated for 5 min at 100 °C. After cooling in iced water, the solution pH was adjusted to 7 with 2 M HCl and H2O was added to complete 100 mL. Sample solutions were prepared by dissolving 10 mg in 1 mL MeOH:H2O (50:50). Several dilutions in PBS (SIGMA-P4417) were made in case of getting complete enzyme inhibition. PBS solution (35 μL), substrate (35 μL) and sample (5 μL) solutions were mixed in a 96-well microtiter plate, and the mixture was pre-incubated at 37 °C for 1 min. Then, 20 μL of a 50 μg/mL α-amylase solution was added to each well. The plate was incubated for 15 min. […] The absorbance was measured in a microplate reader (EPOCH 2, Biotek Instruments Inc. Winoosky, VT, USA) at 580 nm. Inhibitory activity (%) was calculated according to the formula described by Kusano et al. [31] as follows: (1) Inhibition (%)=[1−(ABS2−ABS1)/(ABS4−ABS3)×100] where ABS1 is the absorbance of the incubated solution containing sample, starch and amylase, ABS2 is the absorbance of incubated solution containing sample and starch, ABS3 is the absorbance of incubated solution containing starch and amylase, and ABS4 is the absorbance of incubated solution containing starch. IC50 value was calculated by curve fitting of data (GraphPad Prism 5.0, GraphPad Software, Inc., La Jolla, CA, USA).

Where [3] appears, read: compounds and acarbose; max concentration tested 1 mM; '-' = inactive at maximum dose tested (<35% inhibition); read-out: IC50 α-amylase.
Setting [4] is: read-out: IC50 α-amylase; compounds and acarbose; max concentration tested 1 mM; '-' = inactive at maximum dose tested (<35% inhibition).

`C=C(C)[C@@H]1CC[C@]2(C)CC[C@]3(C)[C@H](CC[C@@H]4[C@@]5(C)CC[C@H](O)C(C)(C)[C@@H]5CC[C@]43C)[C@@H]12` [Compound 3, Lupeol]: the IC50 in assay [1] was over 41.7 µM; in assay [2] (setting [3]), over 62.5 µM.

For `O=C(O)/C=C/c1ccc(O)cc1` [Compound 5, Trans-p-coumaric acid], the “enzyme inhibition (α-glucosidase)” value in assay [1] (at the maximum dose tested (1 mM for compounds)) is 27%. Further, the 50% inhibitory concentration (IC50) in assay [1] was over 41.7 µM; in assay [2] (setting [4]), over 62.5 µM.

For `O=C(O)/C=C\c1ccc(O)cc1` [Compound 2, Cis-p-coumaric acid], the IC50 in assay [1] is over 41.7 µM; in assay [2] (setting [4]), over 62.5 µM.

As for `C=C(C)[C@@H]1CC[C@]2(C)CC[C@]3(C)[C@H](CC[C@@H]4[C@@]5(C)CC[C@H](OC(C)=O)C(C)(C)[C@@H]5CC[C@]43C)[C@@H]12` [Compound 1, Lupeol acetate], the half-inhibitory concentration (IC50) is over 41.7 µM in assay [1] and over 62.5 µM in assay [2] (setting [3]).

Regarding `CC[C@H](CC[C@@H](C)[C@H]1CC[C@H]2[C@@H]3CC=C4C[C@@H](O)CC[C@]4(C)[C@H]3CC[C@]12C)C(C)C` [Compound 4, β-Sitosterol], the half-inhibitory concentration (IC50) in assay [1] was over 41.7 µM; in assay [2] (setting [3]) it was over 62.5 µM.

On to `CCCCC/C=C\C/C=C\CCCCCCCC(=O)O` [Compound 6, Linoleic acid], for which the values for the IC50 in assay [1] and in assay [2] (setting [3]) were 0.42 µM and over 62.5 µM, respectively.

`Oc1cc(O)c2c(c1)O[C@H](c1ccc(O)c(O)c1)[C@@H](O)C2` [Compound 7, (+)-Catechin]: the 50% inhibitory concentration (IC50) is 5.5 µM in assay [1] and over 62.5 µM in assay [2] (setting [3]).

For `C[C@@H]1O[C@@H](Oc2c(-c3ccc(O)c(O)c3)oc3cc(O)cc(O)c3c2=O)[C@H](O)[C@H](O)[C@H]1O` [Compound 9, Quercitrin], the half-inhibitory concentration (IC50) in assay [1] is 7.77 µM; in assay [2] (setting [4]), over 62.5 µM.
